Source: paper PMC4839570, “Novel Anthra[1,2-c][1,2,5]Thiadiazole-6,11-Diones as Promising Anticancer Lead Compounds: Biological Evaluation, Characterization & Molecular Targets Determination” (PLoS ONE, 2016)
Read-outs that look alike come from different tables or passages of the source.

Assays:
CCRF-CEM = assay: NCI-60 cytotoxicity screen; type: cell-based
A549/ATCC = assay: NCI-60 cytotoxicity screen; type: cell-based
NCI-H522 = assay: NCI-60 cytotoxicity screen; type: cell-based
HCC-2998 = assay: NCI-60 cytotoxicity screen; type: cell-based
HCT-116 = assay: NCI-60 cytotoxicity screen; type: cell-based
KM12 = assay: NCI-60 cytotoxicity screen; type: cell-based
SF-539 = assay: NCI-60 cytotoxicity screen; type: cell-based
LOX IMVI = assay: NCI-60 cytotoxicity screen; type: cell-based
SK-MEL-28 = assay: NCI-60 cytotoxicity screen; type: cell-based
IGROV1 = assay: NCI-60 cytotoxicity screen; type: cell-based
NCI/ADR-RES = assay: NCI-60 cytotoxicity screen; type: cell-based
SK-OV-3 = assay: NCI-60 cytotoxicity screen; type: cell-based
CAKI-1 = assay: NCI-60 cytotoxicity screen; type: cell-based
DU-145 = assay: NCI-60 cytotoxicity screen; type: cell-based
MDA-MB-231/ATCC = assay: NCI-60 cytotoxicity screen; type: cell-based
T-47D = assay: NCI-60 cytotoxicity screen; type: cell-based
SF-268 = assay: JFCR-39 cytotoxicity screen; type: cell-based
KM-12 = assay: JFCR-39 cytotoxicity screen; type: cell-based
NCI-H226 = assay: JFCR-39 cytotoxicity screen; type: cell-based
NCI-H460 = assay: JFCR-39 cytotoxicity screen; type: cell-based
A549 = assay: JFCR-39 cytotoxicity screen; type: cell-based
DMS114 = assay: JFCR-39 cytotoxicity screen; type: cell-based
LOX-IMVI = assay: JFCR-39 cytotoxicity screen; type: cell-based
OVCAR-4 = assay: JFCR-39 cytotoxicity screen; type: cell-based
ACHN = assay: JFCR-39 cytotoxicity screen; type: cell-based
MKN1 = assay: JFCR-39 cytotoxicity screen; type: cell-based
[1] = system: NF-κB p65 subunit in OVCAR-3 cells; assay: Western blotting of nuclear and cytosolic fractions; type: cell-based, human; details: OVCAR-3 nuclear fraction
Description: Treated cells were fractionated into nuclear and cytosolic fractions using the Nuclear/Cytosol fractionation kit (BioVision), separated by electrophoresis in SDS-PAGE gels and transferred to Amersham Hybond-P PVDF Membranes. Membranes were probed with either anti-NF-κB p65 rabbit monoclonal primary antibody [E379] Abcam # ab32536, anti-TATA binding protein (TBP) mouse antibody (1TBP18), or anti-beta Tubulin rabbit antibody [NB600-936]. After washing, membranes were incubated with either goat anti-rabbit IgG H&L (HRP) (ab6721), or rabbit anti-mouse IgG H&L (HRP) (ab6728) secondary antibodies. Membranes were developed using the Immobilon Western chemiluminescent HRP substrate kit. Protein bands were normalized to either the beta Tubulin or TBP bands and quantified using ImageJ software.

[2] = Homo sapiens, Fig 7, read-out: mean log10 of the GI50 values (converted)
[3] = Homo sapiens, five-dose, read-out: GI50
[4] = Homo sapiens, five-dose, read-out: LC50 (the source's name)
[5] = Homo sapiens, read-out: LC50 (the source's name)

O=C1c2ccccc2C(=O)c2c1cc(Cl)c1nsnc21 [NSC757963]
GI50 (CCRF-CEM; [2]): 0.389 µM | GI50 (CCRF-CEM; [3]): 0.33 µM | CC50 (CCRF-CEM; [4]): > 100 µM | TGI (CCRF-CEM; five-dose): 2.37 µM | GI50 (A549/ATCC; [2]): 91.2 µM | GI50 (A549/ATCC; [3]): > 100 µM | CC50 (A549/ATCC; [4]): > 100 µM | TGI (A549/ATCC; five-dose): >100 µM | GI50 (NCI-H522; [2]): 1.66 µM | GI50 (NCI-H522; [3]): 1.6 µM | CC50 (NCI-H522; [4]): 8.18 µM | TGI (NCI-H522; five-dose): 3.62 µM | GI50 (HCC-2998; [2]): 17 µM | LC50 (concentration causing 50% net cell kill) (HCC-2998; Homo sapiens, five-dose): 56.6 µM | GI50 (HCC-2998; [3]): 14.1 µM | TGI (HCC-2998; five-dose): 28.2 µM | GI50 (HCT-116; [2]): 2.45 µM | GI50 (HCT-116; [3]): 3.45 µM | CC50 (HCT-116; [4]): 35.3 µM | TGI (HCT-116; five-dose): 11.8 µM | GI50 (KM12; [2]): 10.7 µM | GI50 (KM12; [3]): 12.9 µM | CC50 (KM12; [4]): 52.1 µM | TGI (KM12; five-dose): 25.9 µM | GI50 (SF-539; [2]): 9.12 µM | GI50 (SF-539; [3]): 8.23 µM | CC50 (SF-539; [4]): 50.8 µM | TGI (SF-539; five-dose): 21.6 µM | GI50 (LOX IMVI; Homo sapiens, LOXIMVI, Fig 7, read-out: mean log10 of the GI50 values (converted)): 1.74 µM | GI50 (LOX IMVI; [3]): 1.91 µM | CC50 (LOX IMVI; [4]): 19.7 µM | TGI (LOX IMVI; five-dose): 5.21 µM | GI50 (SK-MEL-28; [2]): 5.37 µM | GI50 (SK-MEL-28; [3]): 9.52 µM | CC50 (SK-MEL-28; [4]): 47 µM | TGI (SK-MEL-28; five-dose): 21.5 µM | GI50 (IGROV1; Homo sapiens, IGROV-1, Fig 7, read-out: mean log10 of the GI50 values (converted)): 2.51 µM | GI50 (IGROV1; Homo sapiens, IGROV-1, five-dose, read-out: GI50): 3.3 µM | CC50 (IGROV1; Homo sapiens, IGROV-1, five-dose, read-out: LC50 (the source's name)): 45.7 µM | TGI (IGROV1; five-dose): 15.6 µM | GI50 (NCI/ADR-RES; [2]): 3.09 µM | GI50 (NCI/ADR-RES; [3]): 3.12 µM | CC50 (NCI/ADR-RES; [4]): > 100 µM | TGI (NCI/ADR-RES; five-dose): 18.8 µM | GI50 (SK-OV-3; [2]): 13.2 µM | GI50 (SK-OV-3; [3]): 17.8 µM | CC50 (SK-OV-3; [4]): 58 µM | TGI (SK-OV-3; five-dose): 32.1 µM | GI50 (CAKI-1; [2]): 7.08 µM | GI50 (CAKI-1; [3]): 12.3 µM | CC50 (CAKI-1; [4]): 58.8 µM | TGI (CAKI-1; five-dose): 26.8 µM | GI50 (DU-145; [2]): 14.1 µM | GI50 (DU-145; [3]): 14.2 µM | CC50 (DU-145; [4]): 52.2 µM | TGI (DU-145; five-dose): 27.2 µM | GI50 (MDA-MB-231/ATCC; [2]): 1.17 µM | GI50 (MDA-MB-231/ATCC; [3]): 1.32 µM | CC50 (MDA-MB-231/ATCC; [4]): 8.63 µM | TGI (MDA-MB-231/ATCC; five-dose): 3.37 µM | GI50 (T-47D; Homo sapiens, T47D, Fig 7, read-out: mean log10 of the GI50 values (converted)): 0.912 µM | GI50 (T-47D; Homo sapiens, T47D, five-dose, read-out: GI50): 1.97 µM | CC50 (T-47D; Homo sapiens, T47D, five-dose, read-out: LC50 (the source's name)): > 100 µM | TGI (T-47D; five-dose): 4.56 µM | TGI (SF-268): 4.0 µM | GI50 (SF-268; Homo sapiens): 2 µM | CC50 (SF-268; [5]): 6.5 µM | TGI (KM-12): 8.4 µM | GI50 (KM-12; Homo sapiens, KM12): 3 µM | CC50 (KM-12; Homo sapiens, KM12, read-out: LC50 (the source's name)): 36 µM | TGI (NCI-H226): 17.0 µM | GI50 (NCI-H226; Homo sapiens): 4.2 µM | CC50 (NCI-H226; [5]): 51 µM | TGI (NCI-H460): 26.0 µM | GI50 (NCI-H460; Homo sapiens): 10 µM | CC50 (NCI-H460; [5]): 64 µM | TGI (A549): 43.0 µM | GI50 (A549; Homo sapiens): 20 µM | CC50 (A549; [5]): 95 µM | TGI (DMS114): 2.5 µM | GI50 (DMS114; Homo sapiens, DMS-114): 1 µM | CC50 (DMS114; Homo sapiens, DMS-114, read-out: LC50 (the source's name)): 6.1 µM | TGI (LOX-IMVI): 4.2 µM | GI50 (LOX-IMVI; Homo sapiens): 1.9 µM | CC50 (LOX-IMVI; [5]): 9.3 µM | TGI (OVCAR-4): 3.0 µM | GI50 (OVCAR-4; Homo sapiens): 1.6 µM | CC50 (OVCAR-4; [5]): 5.6 µM | TGI (ACHN): 3.4 µM | GI50 (ACHN; Homo sapiens): 1.8 µM | CC50 (ACHN; [5]): 6.5 µM | TGI (MKN1): 3.4 µM | GI50 (MKN1; Homo sapiens, MKN-1): 1.8 µM | CC50 (MKN1; Homo sapiens, MKN-1, read-out: LC50 (the source's name)): 6.6 µM | dose of almost complete inhibition of nuclear NF-κB p65 expression [1]: 2.4 µM
